In paper PMC4917822, “pH-Selective Cytotoxicity of pHLIP-Antimicrobial Peptide Conjugates” (Scientific Reports, 2016):
Bridges are numbered along the chain shown (N, C = ends). Roman numbers before positions name the chains, in order. Where no end group is shown, it is not given here.

Columns and labels:
MDA-MB-231 cells [1] = test: Annexin V-Alexa Fluor 488 / MitoTracker Red dual staining by flow cytometry; assay type: cell-based, Human; conditions: for PS externalization (Annexin V) and loss of mitochondrial membrane potential (MitoTracker Red) at low pH / Annexin V / MitoTracker Red effects 6 hours post-treatment: 10 μM; for PS externalization (Annexin V) and loss of mitochondrial membrane potential (MitoTracker Red) at low pH: 2 h at pH 5.0, 24 h recovery, n = 3; for Annexin V / MitoTracker Red effects 6 hours post-treatment: 2 h at pH 7.4 or 5.0, 6 h recovery, n = 3 (Figure S3)
[2] = test system: MDA-MB-231 breast cancer cells; test: Anti-proliferation assay (MTT) after 2 h treatment at pH 7.4 or 5.0; assay type: cell-based, Human; conditions: for enhancement of cytotoxicity of free peptide at low pH: pH 5.0, 10 μM; for enhancement of cytotoxicity of free peptide at low pH / cytotoxicity of free peptide at physiological pH: n = 9; for cytotoxicity of free peptide at physiological pH: pH 7.4, 72 h recovery
Experimental: We have previously shown that this treatment protocol and pHLIP alone have no effect on MDA-MB-231 cell viability.
Figure 2 Inhibition of cell growth. MDA-MB-231 cells treated with 4-amino acid pHLIP-KLAKS conjugates. Black columns represent cells treated at pH 7.4 and cells treated at low pH are shown in grey. For each condition, 3,000 cells/well (96-well plate) were seeded, allowed to adhere overnight, treated for 2 hours, washed once with media and cultured for 72 hour in complete medium at physiologic pH. Cell viability was assessed with the MTT assay. All measurements were normalized to the media control (0 μM, pH 7.4), as 100% cell viability. Results are shown as mean ± SEM (n = 9–12).
For each condition, 3,000 cells/well (96-well plate) were seeded, allowed to adhere overnight, treated for 2 hours, washed once with media and cultured for 72 hour in complete medium at physiologic pH. Cell viability was assessed with the MTT assay. All measurements were normalized to the media control (0 μM, pH 7.4), as 100% cell viability. Results are shown as mean ± SEM (n = 9–12). Data at pH 5.0 (A and B) were fitted with a sigmoidal dose-response using Prism 6 for Macintosh (GraphPad, Inc).
Figure 5 Effect of free peptides on cell viability. MDA-MB-231 cells were treated with 10 μM of either (KLAKLAK)2 (A) or KLAKLAK (B) at pH 7.4 (black circles) or pH 5.0 (grey squares) for 2 hours, washed once with media and cultured for 72 hours in complete medium at physiologic pH. Cell viability was assessed with the MTT assay, and all measurements were normalized to the media control (0 μM, pH 7.4), as 100% cell viability. Results are shown as mean ± SEM (n = 9).
Cells were seeded in 96-well plates at a density of 3,000 cells/well and incubated overnight. […] Treatment solutions were collected and their pH values measured using a micro-combination pH probe (Microelectrodes, Inc.). […] Cell viability was determined after 72 hours using the colorimetric MTT assay. Briefly, 10 μL of a 5 mg/mL MTT stock solution was added to the treated cells and incubated for 2 hours at 37 °C. The resulting formazan crystals were solubilized in 200 μL DMSO and the absorbance measured at 580 nm using an Infinite 200 PRO microplate reader (Tecan). Cell viability was calculated against control cells treated with media at physiologic pH. When needed, data were fitted with a sigmoidal dose-response using Prism 5 for Macintosh (GraphPad, Inc). […]
Figure S1. Effect of Free Peptides on Cell Viability and Plasma Membrane Integrity. For each condition, 3,000 cells/well (96-well plate) were seeded, incubated until confluent (~72 hours) and treated for 2 hours with 10 µM of free pHLIP(WT) or free tetrapeptides at pH 7.4 (black bars) and a low pH (grey bars). (A) Cell viability assay. After the 2-hour treatment, cells were washed once with media and cultured for 72 hour in complete medium at physiologic pH. Cell viability was assessed with the MTT assay. All measurements were normalized to the media control (0 µM, pH 7.4), as 100% cell viability. Results are shown as mean ± SEM (n=9-12). (B) After the 2-hour treatment, cells were detached and counted based on trypan blue uptake with an hemacytometer: % of intact cells corresponds to the number of cells not showing any dye uptake over the total number of cells. Results are shown as mean ± SD (n=3).

MDA-MB-231 cells [3] = test: Lactate dehydrogenase (LDH) release assay; assay type: cell-based, Human; conditions: 10 μM free peptide, 2 h at pH 5.0
Excerpt: (§1) First, we assessed the effect of the conjugates on the integrity of cell membranes based on the uptake of Trypan Blue, which can be taken up by cells only if their plasma membrane is disrupted. […] We also measured the release of the intracellular enzyme lactate dehydrogenase (LDH) after peptide treatment, as another method to evaluate plasma membrane damage. […] Importantly, it was previously shown that neither pHLIP alone nor low pH treatments disrupts membranes, including that of MDA-MB-231 cells[20][23] (Figure S1).
(§2) Figure 4 Effect of free peptides and pHLIP-conjugates on Plasma Membrane Integrity and Lactate Dehydrogenase (LDH) Release. (A) The integrity of the plasma membrane is assessed by the uptake of trypan blue dye. […] Cells were detached and counted based on trypan blue uptake with an hemacytometer: % of intact cells corresponds to the number of cells not showing any dye uptake over the total number of cells. […] Cell media supernatant was monitored for the presence of LDH following treatment. […]
(§3) For the Trypan Blue plasma membrane integrity assays cells were seeded in 96-well plates at a density of 3,000 cells/well and incubated until confluent (~72 hours). […] After treatment, the media was removed, cells were detached using trypsin and counted based on trypan blue uptake using an hemacytometer. […] Percent LDH release was calculated against control cells treated with media at physiologic pH.

caspases 3 and 7 = conditions: MDA-MB-231; 10 μM; 2 h at pH 7.4 or 5.0; monitored at 24, 48 and 72 hours; fluorescence 485/530 nm; n = 3 (Figure S5)
Experimental: Before treatment, construct aliquots were solubilized in an appropriate volume of DMEM without FBS (pH 7.4) so that upon pH adjustment 10 μM is obtained. […]

MDA-MB-231 cells [4] = test: Trypan Blue plasma membrane integrity assay; assay type: cell-based, Human; conditions: 10 μM, 2 h at pH 7.4 or pH 5.0, % intact cells counted with hemacytometer, mean ± SD, n = 3
Excerpt: as §1, §2
as §3, with “pH. […]” for “pH.”

[5] = test system: MDA-MB-231 breast cancer cells; conditions: cited from earlier work

Row | Molecule | PS externalization (Annexin V) and loss of mitochondrial membrane potential (MitoTracker Red) at low pH (MDA-MB-231 cells [1]) | Annexin V / MitoTracker Red effects 6 hours post-treatment (MDA-MB-231 cells [1]) | enhancement of cytotoxicity of free peptide at low pH ([2]; 72 h recovery) | cytotoxicity of free peptide at physiological pH [2] | LDH release 24 hours post-treatment at low pH (MDA-MB-231 cells [3]) | other results
1 | CKLAKLAKKLAKLAK [(KLAKLAK)2, cationic antimicrobial peptide cargo, synthesized with N-terminal Cys, amidated C-terminus] | largest effect | no evidence of these effects | greatest enhancement | not significantly toxic | some LDH release | 
2 | CKLAKLAK [7-amino acid (KLAKLAK)2 analog cargo peptide, synthesized with N-terminal Cys] | only a modest one | no evidence of these effects | only a modest one | not significantly toxic | some LDH release | caspase 3/7 activation (caspases 3 and 7): neither treatments with pHLIP-KLAKLAK or KLAKLAK induces any significant caspase activation
3 | GGEQNPIYWARYADWLFTTPLLLLDLALLVDADEGTCG (H-GGEQNPIYWARYADWLFTTPLLLLDLALLVDADEGTCG-NH2) [pHLIP(WT)] |  |  |  |  |  | plasma membrane integrity (trypan blue uptake) (MDA-MB-231 cells [4]): neither pHLIP(WT) nor the tetrapeptides has any significant harmful effects; effect of free peptide on cell viability (Figure S1A) ([2]; 10 μM free peptide, pH 7.4 and low pH, 72 h recovery, n = 9-12): neither pHLIP(WT) nor the tetrapeptides has any significant harmful effects; effect of pHLIP alone on MDA-MB-231 cell viability [5]: no effect
4 | CN[C@@H]1C[C@H]2O[C@@](C)([C@@H]1OC)n1c3ccccc3c3c4c(c5c6ccccc6n2c5c31)C(=O)NC4 [staurosporine, reference compound] |  |  |  |  |  | Annexin V / MitoTracker Red population shift (positive control) (MDA-MB-231 cells [1]; 1 μM for 6 or 24 hours, n = 3 (Figure S4)): clear shift in cell population
5 | I: GGEQNPIYWARYADWLFTTPLLLLDLALLVDADEGTCG-NH2 / II: CKAAK-NH2 (disulfide I:37-II:1) [pHLIP-KAAK] |  |  |  |  |  | overall cell proliferation inhibition relative to the other 4-amino acid conjugates ([2]; low pH, 1.25–10 μM, 72 h recovery): lower than pHLIP-KGGK
